Measurements from patent US5206384A, “Actinonin derivatives and pharmaceutically acceptable salts thereof” (Zaidan Hojin Biseibutsu Kagaku Kai, priority 1990, dated 1993).

Experiments:
[1] = biological target: angiotensin-conversion enzyme (ACE) (Homo sapiens, UniProt P12821); assay: ACE-inhibitory activity; type: biochemical; conditions: for IC50: method of Analytical Biochemistry, 84, 361 (1978)
Method: Thus, we have tested the enzyme-inhibitory activities of some typical compounds of this invention against angiotensin-conversion enzyme (ACE) which participates in the control of blood-pressure in mammalian animals by converting angiotensin I, a peptide-type hormone in brain, into angiotensin II. The determination of ACE-inhibitory activity was carried out in accordance with the method described in "Analytical Biochemistry", 84, 361 (1978) and the activity was estimated in term of the concentration (mole concentration, M) of each compound tested at which the activity of the enzyme can be inhibited by 50% (IC50).

enkephalinase = enkephalinase (Homo sapiens, UniProt P08473); assay: Enkephalinase-inhibitory activity; type: biochemical; conditions: for IC50: concentration which inhibits enzymatic activity of enkephalinase by 50%
enkephalinase, sequence (P08473 whole entry, species assumed): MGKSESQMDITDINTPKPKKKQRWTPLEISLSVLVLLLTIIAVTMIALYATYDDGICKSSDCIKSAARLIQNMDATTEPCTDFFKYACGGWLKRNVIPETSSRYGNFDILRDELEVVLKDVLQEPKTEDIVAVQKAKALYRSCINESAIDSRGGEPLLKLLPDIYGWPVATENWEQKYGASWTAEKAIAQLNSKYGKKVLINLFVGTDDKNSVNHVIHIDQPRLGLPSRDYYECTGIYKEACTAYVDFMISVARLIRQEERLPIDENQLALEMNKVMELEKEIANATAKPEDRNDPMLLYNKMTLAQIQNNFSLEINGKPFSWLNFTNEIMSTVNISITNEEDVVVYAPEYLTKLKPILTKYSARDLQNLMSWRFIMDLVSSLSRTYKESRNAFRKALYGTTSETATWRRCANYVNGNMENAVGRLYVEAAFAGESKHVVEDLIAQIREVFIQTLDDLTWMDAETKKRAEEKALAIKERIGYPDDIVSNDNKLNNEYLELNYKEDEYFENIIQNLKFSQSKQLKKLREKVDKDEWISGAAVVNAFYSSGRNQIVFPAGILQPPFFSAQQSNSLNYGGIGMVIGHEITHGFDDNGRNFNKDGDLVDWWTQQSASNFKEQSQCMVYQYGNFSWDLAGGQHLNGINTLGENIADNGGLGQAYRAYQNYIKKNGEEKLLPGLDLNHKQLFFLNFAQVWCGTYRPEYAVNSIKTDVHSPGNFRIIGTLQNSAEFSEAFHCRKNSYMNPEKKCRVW
Method: IC50 concentrations (M concentration) of some typical compounds of this invention which can inhibit enzymatic activity of enkephalinase by 50% were measured.

peptidases = conditions: Journal of Antibiotics, 38, 1629-1630 (1985); U.S. Pat. No. 4,663,342; cited from earlier work

angiotensin-conversion enzyme (ACE), sequence (P12821 30-1306, species assumed): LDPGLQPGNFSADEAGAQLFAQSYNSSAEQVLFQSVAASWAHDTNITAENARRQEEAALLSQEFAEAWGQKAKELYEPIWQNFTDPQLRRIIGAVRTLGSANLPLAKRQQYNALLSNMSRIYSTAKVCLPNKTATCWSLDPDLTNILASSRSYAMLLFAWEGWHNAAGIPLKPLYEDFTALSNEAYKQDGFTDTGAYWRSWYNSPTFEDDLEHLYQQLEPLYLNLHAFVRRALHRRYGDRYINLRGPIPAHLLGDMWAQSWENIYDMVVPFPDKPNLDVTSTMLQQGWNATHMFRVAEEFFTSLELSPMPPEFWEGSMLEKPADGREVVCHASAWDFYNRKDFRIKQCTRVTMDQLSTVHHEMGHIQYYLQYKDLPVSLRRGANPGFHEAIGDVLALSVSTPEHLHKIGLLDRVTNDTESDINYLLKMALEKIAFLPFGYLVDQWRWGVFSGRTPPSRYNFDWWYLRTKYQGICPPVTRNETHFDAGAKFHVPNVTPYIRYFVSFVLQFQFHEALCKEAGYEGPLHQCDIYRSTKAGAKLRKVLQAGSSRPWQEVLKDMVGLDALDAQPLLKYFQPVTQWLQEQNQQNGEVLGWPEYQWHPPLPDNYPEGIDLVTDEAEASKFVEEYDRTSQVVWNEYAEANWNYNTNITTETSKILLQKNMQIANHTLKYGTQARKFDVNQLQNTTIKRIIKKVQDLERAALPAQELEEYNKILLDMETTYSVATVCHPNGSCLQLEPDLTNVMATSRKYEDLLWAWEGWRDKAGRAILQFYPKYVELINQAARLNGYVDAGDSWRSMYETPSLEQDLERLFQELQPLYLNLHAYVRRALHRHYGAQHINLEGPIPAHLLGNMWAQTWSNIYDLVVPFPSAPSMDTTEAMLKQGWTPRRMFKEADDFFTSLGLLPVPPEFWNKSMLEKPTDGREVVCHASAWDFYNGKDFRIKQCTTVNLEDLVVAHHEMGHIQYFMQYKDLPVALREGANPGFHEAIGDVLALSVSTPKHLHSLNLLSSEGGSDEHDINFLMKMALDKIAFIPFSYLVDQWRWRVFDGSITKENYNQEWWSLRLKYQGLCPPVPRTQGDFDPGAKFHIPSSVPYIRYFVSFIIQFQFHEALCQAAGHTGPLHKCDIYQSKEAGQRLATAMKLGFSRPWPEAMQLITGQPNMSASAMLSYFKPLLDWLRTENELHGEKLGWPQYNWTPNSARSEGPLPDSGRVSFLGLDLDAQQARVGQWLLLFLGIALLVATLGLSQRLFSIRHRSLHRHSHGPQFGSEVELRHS

Row | SMILES | IC50 [1] | IC50 (enkephalinase) | enkephalinase-inhibitory activity, times stronger than that of actinonin (enkephalinase; relative to actinonin as reference, from Table 2) | inhibitory activities against angiotensin-converting enzymes (in words) [1] | inhibits a wide variety of peptidases (in words) (peptidases)
1 | CCCCC[C@H](CC(=O)NOS(=O)(=O)O)C(=O)NC(C(=O)N1CCC[C@H]1COS(=O)(=O)O)C(C)C (stereo in doubt) [Compound of formula (Ia), (2R)-2-(Sulfoxyaminocarbonylmethyl)heptanoyl-L-valyl-(2S)-2-(sulfoxymethyl)pyrrolidine] | 92 µM | 14 µM |  |  | 
2 | CCCCC[C@H](CC(=O)NO)C(=O)NC(C(=O)N1CCC[C@H]1C(=O)O)C(C)C (stereo in doubt) [Compound of formula (Ib), (2R)-2-(Hydroxyaminocarbonylmethyl)heptanoyl-L-valyl-L-proline] | 28 µM | 0.31 µM | more than 10 times |  | 
3 | CCCCC[C@H](CC(=O)NO)C(=O)NC(C(=O)N1CCC[C@H]1COS(=O)(=O)O)C(C)C (stereo in doubt) [Compound of formula (Ig), (2R)-2-(Hydroxyaminocarbonylmethyl)heptanoyl-L-valyl-(2S)-2-(sulfoxymethyl)pyrrolidine] | 430 µM | 4.1 µM |  |  | 
4 | CCCCC[C@H](CC(=O)NO)C(=O)N[C@H](C(=O)N1CCC[C@H]1CO)C(C)C [Actinonin, actinonin] | 590 µM | 5.6 µM |  | low levels of inhibitory activity | inhibits a wide variety of peptidases
5 | CCCCC[C@H](CC(=O)NO)C(=O)N[C@H](C(=O)N1CCC[C@H]1C(=O)NO)C(C)C [Compound of formula (Id), (2R)-2-(Hydroxyaminocarbonylmethyl)heptanoyl-L-valyl-L-proline.hydroxamide] | 0.53 µM | 1.2 µM |  |  | 
